Patent publication US20230024119A1, “COMBINED USE OF SODIUM TRANS-[TETRACHLORIDOBIS(1H-INDAZOLE)RUTHENATE(III)] AND ETOMOXIR FOR TREATING CANCERS” (Bold Therapeutics, Inc., priority 2019, published 2023)

Columns and labels:
KP1339-resistant cells = conditions: upon KP1339 treatment
Protocol: (§1) (also referred to herein as KP1339 or BOLD-100 or IT139). […] Lipid storage compartments (lipid droplets) were visualized fluorescently with Bodipy 493/503. Utilizing specific pharmacological inhibitors, the role of altered lipid metabolism components in KP1339 resistance was dissected. Mitochondrial oxygen consumption rate (OCR) and extracellular acidification rate (ECAR) were assessed by Seahorse XF analysis. Lipidomics and consecutive proteomics analysis were used to further characterize the resistance phenotype.

sensitive HCT116 cells = system: sensitive HCT116 cells
Protocol: as §1

[1] = system: HCT116 and Capan1 cell models with acquired KP1339 resistance; test: Sensitivity of KP1339-resistant cell models to lipid-modulating agents; assay type: cell-based
Protocol: as §1

Structure (SMILES) | amount of Compound A present in the lyophilized product (cooling the solution during the formulation process) | degradation in water (in water) | mitochondrial oxygen consumption rate (OCR) (KP1339-resistant cells) | extracellular acidification rate (ECAR) (sensitive HCT116 cells; Seahorse Mito Stress Test, sensitive HCT116 cells) | mitochondrial oxygen consumption rate (OCR) (sensitive HCT116 cells; upon KP1339 treatment, parental cells) | sensitivity towards lipid-modulating agents [1]
[Cl][Ru]([Cl])([Cl])[Cl].[Na+].c1ccc2[nH]ncc2c1.c1ccc2[nH]ncc2c1 [KP1339, Sodium trans-[tetrachloridobis(1H-indazole)ruthenate(III)]] | greatly reduce the amount of Compound A | can degrade in water to Compound A | stayed unchanged in resistant cells | massively reduced ECAR | reduced in parental | –
CCCCCCCCCCC[C@@H](C[C@@H]1OC(=O)[C@H]1CCCCCC)OC(=O)[C@H](CC(C)C)NC=O [orlistat] | – | – | – | – | – | hypersensitive
CCC/C=C/C/C=C/C=C/C=N/NN=O [triacsin C] | – | – | – | – | – | hypersensitive
